For one assay, the target named is T1, AuroraA-TPX2 (Homo sapiens, UniProt O14965).
T1 construct: 20 μL of AuroraA-TPX2 KD GST; GST
T1 sequence (O14965 133-383 limits assumed): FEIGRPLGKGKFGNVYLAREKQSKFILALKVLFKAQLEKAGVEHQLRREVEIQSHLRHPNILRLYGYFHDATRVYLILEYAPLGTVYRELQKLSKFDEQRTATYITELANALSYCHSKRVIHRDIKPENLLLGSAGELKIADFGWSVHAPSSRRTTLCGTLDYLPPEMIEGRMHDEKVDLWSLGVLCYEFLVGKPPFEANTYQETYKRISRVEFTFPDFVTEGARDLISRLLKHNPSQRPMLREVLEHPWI
T1 sequence (Q9ULW0 1-43 partner limits assumed): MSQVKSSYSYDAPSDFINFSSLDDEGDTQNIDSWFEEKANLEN
Kind of assay: AuroraA-TPX2 Homogeneous Time Resolved Fluorescent (HTRF) kinase assay. The assay is classed as biochemical. The conditions noted are these: average; ATP about 1 μM; read-out: AurA_IC50_IP (uM Avg). As to the method:
The Aurora-A HTRF assay begins with Aurora-A in the presence of ATP phosphorylating the biotinylated peptide PLK. The reaction incubates for about 120 min. Detection reagents are added to quench the reaction. These agents stop the reaction by diluting out the enzyme and chelating the metals due to the presence of EDTA. After addition, the assay is incubated overnight to allow the detection reagents to equilibrate.
The AuroraA HTRF assay comprises 1 μL of compound in 100% DMSO, 20 μL of ATP and biotinylated PLK, and 20 μL of AuroraA-TPX2 KD GST for a final volume of about 41 μL. The final concentration of PLK is about 1 μM. The final concentration of ATP is about 1 μM (Km(app)=1 μM+/−0.1) and the final concentration of AuroraA is about 5 nM. Buffer conditions are as follows: 60 mM HEPES pH 7.5, 25mM NaCl, 10 mM MgCl, 2 mM DTT, 0.05% BSA.
The assay is quenched and stopped with 160 μL of detection reagent. Detection reagents are as follows: Buffer made of 50 mM Tris, pH 7.5, 100 mM NaCl, 3 mM EDTA, 0.05% BSA, 0.1% Tween20. Added to this buffer prior to reading is Steptavidin allophycocyanin (SA-APC) at a final conc in the assay of 0.0005 mg/mL, and europilated anti-phosphoPLK Ab (Eu-anti-PLK) at a final conc of 0.02 nM.
The assay plate is read in either a Discovery or a RubyStar. The eu-anti-PLK is excited at 320 nm and emits at 615 nm to excite the SA-APC which in turn emits at 655 nm. The ratio of SA-APC at 655 nm (excited due to close proximity to the Eu-anti-PLK because of phosphorylation of the peptide) to free Eu-anti-PLK at 615 nm will give substrate phosphorylation.
Many of the Examples described herein were tested and found to be active compounds. Table I includes related biological data, which may be interpreted using the activity gauge below.
(In TR-FRET formats the signal depends on donor and acceptor labels being close together.)

A further assay addresses T2, AuroraB (Homo sapiens, UniProt Q96GD4).
T2 construct: 20 μL of AuroraB FL His; His
Kind of assay: AuroraB Homogeneous Time Resolved Fluorescent (HTRF) kinase assay. The assay is classed as biochemical. Conditions: average; ATP 23 μM; read-out: AurB_IC50_IP (uM Avg). As to the method:
The AuroraB HTRF assay begins with AuroraB in the presence of ATP phosphorylating the biotinylated peptide Histone H3. The reaction incubates for about 90 min. the reaction is quentched by addition of detection reagents, which stop the reaction by diluting out the enzyme and chelating the metals due to the presence of EDTA. After addition, the assay is incubated for about 60 min to allow detection reagents to equilibrate.
The AuroraB HTRF assay comprises 1 μL of compound in 100% DMSO, 20 μL of ATP and biotinylated Histone H3, and 20 μL of AuroraB FL His for a final volume of 41 μL. The final concentration of Histone H3 is 0.1 μM. The final concentration of ATP is 23 μM (Km(app)=23 μM+/−2.6) and the final concentration of AuroraB is 400 pM. Buffer conditions are as follows: 50 mM HEPES pH 7.5, 5 mM NaCl, 0.5 mM MgCl, 0.5 mM MnCl, 2 mM DTT, 0.05% BSA.
The assay is quenched and stopped with 160 μL of detection reagent. Detection reagents are as follows: Buffer made of 50 mM Tris, pH 7.5, 100 mM NaCl, 3 mM EDTA, 0.05% BSA, 0.1% Tween20. Added to this buffer prior to reading is Steptavidin allophycocyanin (SA-APC) at a final conc in the assay of 0.001 mg/mL, and europilated anti-phosphoHistoneH3 Ab (Eu-anti-HisH3) at a final conc of 0.064 nM.
The assay plate is read in either a Discovery or a RubyStar. The eu-anti-HisH3 is excited at 320 nm and emits at 615 nm to excite the SA-APC which in turn emits at 655 nm. The ratio of SA-APC at 655 nm (excited due to close proximity to the Eu-anti-HisH3 because of phosphorylation of the peptide) to free Eu-anti-HisH3 at 615 nm will give substrate phosphorylation.
Many of the Examples described herein were tested, and fund to be active compounds. Table I includes related biological data, which may be interpreted using the activity gauge below.

In the next assay the test system is HeLa cells. Kind of assay: HeLa cell 24 hr ploidy assay. The assay is classed as cell-based. Conditions: Homo sapiens, 24 hrs treatment, DNA ploidy, average, read-out: 24h_4N Ploidy EC50_IP (uM Avg). As to the method: The purpose of this assay is to evaluate the ability of selected individual compounds to induce Deoxyribonucleic acid (DNA) content (ploidy) in cells through failed cell division. Cell cycle analysis is a rapid and efficient way to evaluate the status of DNA content (ploidy) of a given cell. HeLa cells (1×10^4 HeLa cells/well) in 100 ul of media (MEM+10% FBS) were plated in 96-well plates (Packard View) and cultured for 24 hrs at 37° C. maintained in a 5% CO2 atmosphere. The following day, cells were treated for 24 hrs with inhibitor compounds (10 pt. Dose ranging from 0.0024-1.25 umol/L). The compounds were serially diluted in DMSO (0.25% final concentration). The cells were fixed (3.7% Formaldehyde and 1% glutaraldehyde) and permeabilized (1×PBS with 1% BSA an d0.2% Triton X-100) in preparation for nuclear staining. The well plates were stained for 45 minutes at RT in the dark using Hoechest 33342 nuclear stain at 0.5 ug.ml (Stock of 10 mg/ml, Invitrogen, Calif., Cat #H3570). The nuclear stain was removed by aspiration and the cells were washed with wash buffer. A Cellomics Array Scan Vti plate reader was used to acquire the DNA ploidy data of the cells using Cell Cycle bioapplication. Numbers for each of “valid cell count/well”, “% of 4N cells” and “% of >4Ncells” were calculated with the assistance of an Activity Base 5.1ca software and dose curves were generated using an XLFit software. With XLFit, final EC50 IP and EC50 transit values, as well as the Max and Min, were calculated for each curve.

Structures are written as SMILES.

T2 sequence (Q96GD4 whole entry): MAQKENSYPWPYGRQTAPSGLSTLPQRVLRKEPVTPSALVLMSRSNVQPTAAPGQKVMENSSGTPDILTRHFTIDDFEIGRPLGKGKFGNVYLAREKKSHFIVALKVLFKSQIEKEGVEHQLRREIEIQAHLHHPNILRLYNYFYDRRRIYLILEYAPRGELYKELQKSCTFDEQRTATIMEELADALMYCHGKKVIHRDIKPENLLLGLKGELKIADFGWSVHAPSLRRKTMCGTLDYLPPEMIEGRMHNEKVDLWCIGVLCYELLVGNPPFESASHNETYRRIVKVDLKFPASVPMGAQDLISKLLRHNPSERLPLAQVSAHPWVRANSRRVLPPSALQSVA

On to `CNc1cc(Sc2ccc(Nc3nnc(-c4ccc(Cl)cc4)c4ccccc34)cc2)ccn1` [Example 28, 4-(4-chlorophenyl)-N-(4-((2-(methylamino)-4-pyridinyl)thio)phenyl)-1-phthalazinamine], for which the IC50 on AuroraA-TPX2 is 0.1 to 0.5 µM; on AuroraB, less than 0.1 µM. The EC50 in the assay with HeLa cells was 0.1 to 0.5 µM.
On to `Clc1ccc(-c2nnc(Nc3ccc(Oc4ccnc(/C=C/c5ccccc5)c4)cc3)c3ccccc23)cc1` [Example 40, 4-(4-chlorophenyl)-N-(4-((2-((E)-2-phenylethenyl)-4-pyridinyl)oxy)phenyl)-1-phthalazinamine], for which the IC50 on AuroraA-TPX2 is 0.1 to 0.5 µM; at AuroraB it was less than 0.1 µM.
The like results for `Cc1ccc(-c2nnc(Nc3ccc(Sc4ccnc(-c5cc6ccccc6[nH]5)n4)cc3)c3ccccc23)cc1N` [Example 41, 4-(3-amino-4-methylphenyl)-N-(4-((2-(1H-indol-2-yl)-4-pyrimidinyl)sulfanyl)phenyl)-1-phthalazinamine] were, in that order, 0.1 to 0.5 µM and less than 0.1 µM.
`OCCNc1nccc(Sc2ccc(Nc3nnc(-c4ccccc4)c4ccccc34)cc2)n1` [Example 31, 2-((4-((4-((4-phenyl-1-phthalazinyl)amino)phenyl)sulfanyl)-2-pyrimidinyl)amino)ethanol]: the IC50 on AuroraA-TPX2 is 0.1 to 0.5 µM; at AuroraB it was less than 0.1 µM. Moreover, in the assay with HeLa cells, the EC50 was 0.1 to 0.5 µM.
Consider `Clc1ccc(-c2nnc(Nc3ccc(Sc4ccnc(-c5cc6ccccc6[nH]5)n4)cc3)c3ccccc23)cc1` [Example 36, 4-(4-chlorophenyl)-N-(4-((2-(1H-indol-2-yl)-4-pyrimidinyl)sulfanyl)phenyl)-1-phthalazinamine], for which the IC50 at AuroraA-TPX2 and at AuroraB was less than 0.1 µM throughout. Moreover, the EC50 in the assay with HeLa cells was less than 0.1 µM.
As to `CS(=O)(=O)CCNc1cc(Oc2ccc(Nc3nnc(-c4ccc(Cl)cc4)c4ccccc34)cc2)ccn1` [Example 29, 4-(4-chlorophenyl)-N-(4-((2-((2-(methylsulfonyl)ethyl)amino)-4-pyridinyl)oxy)phenyl)-1-phthalazinamine], the IC50 on AuroraA-TPX2 and at AuroraB was 0.1 to 0.5 µM in each case. For the same compound, the EC50 with HeLa cells fell in the range of 1 to 5 µM.
In the case of `Clc1ccc(-c2nnc(Nc3ccc(Sc4ccnc(/C=C/c5ccccc5)n4)cc3)c3ccccc23)cc1` [Example 35, 4-(4-chlorophenyl)-N-(4-((2-((E)-2-phenylethenyl)-4-pyrimidinyl)sulfanyl)phenyl)-1-phthalazinamine], the IC50 is 0.1 to 0.5 µM at AuroraA-TPX2 and less than 0.1 µM on AuroraB. In the assay with HeLa cells, the EC50 is less than 0.1 µM.
Take `O=C(Nc1cc(Oc2ccc(Nc3nnc(-c4ccccc4)c4ccccc34)cc2F)ccn1)N1CCOCC1` [Example 44, N-(4-((2-fluoro-4-((4-phenyl-1-phthalazinyl)amino)phenyl)oxy)-2-pyridinyl)-4-morpholinecarboxamide]: the values for the IC50 on AuroraA-TPX2 and on AuroraB were 0.1 to 0.5 µM and less than 0.1 µM, respectively. In addition, the EC50 in the assay on HeLa cells is 0.1 to 0.5 µM.
As to `CNCCNc1nccc(Sc2ccc(Nc3nnc(-c4ccccc4)c4ccccc34)cc2)n1` [Example 33, N-methyl-N′-(4-((4-((4-phenyl-1-phthalazinyl)amino)phenyl)sulfanyl)-2-pyrimidinyl)-1,2-ethanediamine], the IC50 on AuroraB lay within 1 to 5 µM. In addition, the EC50 in the assay on HeLa cells fell in the range of 1 to 5 µM.
In the case of `c1ccc(-c2nnc(Nc3ccc(Sc4ccnc(-c5cc6ccccc6[nH]5)n4)cc3)c3ccccc23)cc1` [Example 42, N-(4-((2-(1H-indol-2-yl)-4-pyrimidinyl)sulfanyl)phenyl)-4-phenyl-1-phthalazinamine], on AuroraB, the IC50 lay in the range of 0.1 to 0.5 µM. For the same compound, in the assay on HeLa cells, the EC50 is 1 to 5 µM.
As to `CSc1nccc(Oc2ccc(Nc3nnc(-c4ccccc4)c4ccccc34)cc2)n1` [Example 43, N-(4-((2-(methylthio)-4-pyrimidinyl)oxy)phenyl)-4-phenyl-1-phthalazinamine], the IC50 at AuroraB fell in the range of 1 to 5 µM. In addition, the EC50 with HeLa cells lay within 0.1 to 0.5 µM.
